Patent US20140350273A1, “PEDIATRIC USES OF CABAZITAXEL” (AVENTIS PHARMA S.A., priority 2012, published 2014)
Like-named read-outs stand apart in the source and are kept apart here.

Test system: human Ewing's sarcoma DM101
Assay type: in vivo
Conditions: for Tumor Volume Data (Day 11) Median / ΔT/ΔC %: day 11; for MTTE / T-C: volume endpoint 2000 mm^3; for tumor volume changes from baseline, Median +/− MAD: nude mice bearing DM101 Ewing's sarcoma
Protocol: The resultant solution contains 10 mg/mL of cabazitaxel. Stock solution of cabazitaxel was then diluted in 0.9% sodium chloride.
This efficacy may be quantified, for example, as changes in tumor volume for each treated (T) and control (C) group, which are calculated for each animal and each day by subtracting the tumor volume on the day of first treatment (staging day) from the tumor volume on the specified observation day. This allows calculating the tumor growth inhibition: ΔT/ΔC=(median delta T/median delta C)×100. Individual tumor volume changes from baseline are thereafter analyzed by a non-parametric two-way ANOVA-TYPE (with factors: group and repeated days) followed by a post-hoc contrasts analysis, with Bonferroni-Holm adjustment for multiplicity, comparing all treated groups to the control group. […] A probability less than 5% (p<0.05) was considered as significant.
Based on the National Cancer Institute (NCl) standards, a ΔT/ΔC≦40% is the minimal level required to declare activity.
This efficacy may also be quantified by the number of tumor regressions observed after therapy. Individual mice reporting a tumor volume ≦50% of the Day 0 measurement for two consecutive measurements over a seven day period were considered partial responders (PR). Individual mice lacking palpable tumors (<4×4 mm^2 for two consecutive measurements over a seven day period) were classified as complete responders (CR); a CR that persisted until study completion was considered a tumor-free survivor (TFS).
Efficacy could also be determined at study completion, using tumor growth delay (T-C) in days, which is calculated using the median time to endpoint (MTTE) value for each treatment (T) group versus control (C). A Log Rank multiple comparison test with Bonferroni-Holm adjustment for multiplicity was applied on individual TTE to compare the treated groups to the control group.
The animals subjected to the experiment are subcutaneously grafted unilaterally with approximately 30 mg of a tumor fragment from low passage pediatric patient-derived tumor xenografts. The animals are implanted with a human patient-derived pediatric tumor xenografted in immuno-compromised mice (Harlan; nu/nu). Several days post tumor implantation, mice are randomized according to their tumor burden to the different groups of treatments and controls. The agents are dosed intravenously at 5.8, 9.3, 15 or 24.2 mg/kg every 4 days for a total of 3 doses (q4d×3) to mice bearing a tumor burden at start of therapy (day 0) ranged from 125 to 250 mm^3.
Beginning Day 0, animals were observed daily and weighed twice weekly using a digital scale; data including individual and mean gram weights (Mean We±SD), mean percent weight change versus Day 0 were recorded for each group. Animal deaths were recorded daily and designated as drug-related (D), technical (T), tumor related (B), or unknown (U) based on weight loss and gross observation; single agent or combination groups reporting a mean >20% for a period of 7 days and/or >10% mortality were considered above the maximum tolerated dose (MTD) for that treatment on the evaluated regimen.
The selected tumor model, DM101, was a low passage patient-derived tumor xenograft derived from an Ewing's sarcoma taken from the bone of a patient.
The following end points were used: • Toxicity was declared at dosages inducing ≧20% body weight loss or ≧10% drug death; • Antitumor efficacy was determined by calculating the ΔT/ΔC value in percent on day 11 post treatment initiation, according to the above mentioned formula; • Individual tumor volume changes from baseline were analyzed by a non-parametric two-way ANOVA-TYPE (with factors: group and repeated day from 4 to 14) followed by a post-hoc contrasts analysis, with Bonferroni-Holm adjustment for multiplicity, comparing all treated groups to the control group on day 11. […] The volume endpoint for T-C calculations was chosen to be 2000 mm^3.

CO[C@H]1C(=O)[C@]2(C)[C@@H](OC)C[C@H]3OC[C@@]3(OC(C)=O)[C@H]2[C@H](OC(=O)c2ccccc2)[C@]2(O)C[C@H](OC(=O)[C@H](O)[C@@H](NC(=O)OC(C)(C)C)c3ccccc3)C(C)=C1C2(C)C [Cabazitaxel, 4α-acetoxy-2α-benzoyloxy-5β,20-epoxy-1β-hydroxy-7β,10β-dimethoxy-9-oxo-11-taxen-13α-yl (2R,3S)-3-tert-butoxycarbonyl-amino-2-hydroxy-3-phenylpropionate]
#CR (5.8 mg/kg i.v./q4d × 3): 0/0/0
#PR (5.8 mg/kg i.v./q4d × 3): 0/0/0
#TFS (5.8 mg/kg i.v./q4d × 3): 0/0/0
Drug Deaths Total (5.8 mg/kg i.v./q4d × 3): 0
Tumor Volume Data (Day 11) Median (5.8 mg/kg i.v./q4d × 3): 204 mm^3
ΔT/ΔC % (5.8 mg/kg i.v./q4d × 3): 8.9%
MTTE (5.8 mg/kg i.v./q4d × 3): 34.8 days
T-C (5.8 mg/kg i.v./q4d × 3): 17.9 days
tumor volume changes from baseline, Median +/− MAD (5.8 mg/kg, DAY 4): 0 +/− 0 (n = 9)
tumor volume changes from baseline, Median +/− MAD (5.8 mg/kg, DAY 7): 34 +/− 34
tumor volume changes from baseline, Median +/− MAD (5.8 mg/kg, DAY 11): 73 +/− 73
tumor volume changes from baseline, Median +/− MAD (5.8 mg/kg, DAY 14): 155 +/− 136
tumor volume changes from baseline, Median +/− MAD (5.8 mg/kg, DAY 17): 306 +/− 152
tumor volume changes from baseline, Median +/− MAD (5.8 mg/kg, DAY 20): 489 +/− 199
tumor volume changes from baseline, Median +/− MAD (5.8 mg/kg, DAY 25): 696.5
tumor volume changes from baseline, Median +/− MAD (5.8 mg/kg, DAY 28): 1097 +/− 117
tumor volume changes from baseline, Median +/− MAD (5.8 mg/kg, DAY 32): 1396
#CR (9.3 mg/kg i.v./q4d × 3): 1/1/1
#PR (9.3 mg/kg i.v./q4d × 3): 1/1/1
#TFS (9.3 mg/kg i.v./q4d × 3): 1/1/1
Drug Deaths Total (9.3 mg/kg i.v./q4d × 3): 0
Weight Nadir % (9.3 mg/kg i.v./q4d × 3): −2%
Weight Nadir Day (9.3 mg/kg i.v./q4d × 3): 7
Tumor Volume Data (Day 11) Median (9.3 mg/kg i.v./q4d × 3): 255 mm^3
ΔT/ΔC % (9.3 mg/kg i.v./q4d × 3): 9.4%
MTTE (9.3 mg/kg i.v./q4d × 3): 23.9 days
T-C (9.3 mg/kg i.v./q4d × 3): 7 days
tumor volume changes from baseline, Median +/− MAD (9.3 mg/kg, DAY 4): 0 +/− 33
tumor volume changes from baseline, Median +/− MAD (9.3 mg/kg, DAY 7): 13 +/− 41
tumor volume changes from baseline, Median +/− MAD (9.3 mg/kg, DAY 11): 77 +/− 118
tumor volume changes from baseline, Median +/− MAD (9.3 mg/kg, DAY 14): 188 +/− 241
tumor volume changes from baseline, Median +/− MAD (9.3 mg/kg, DAY 17): 498 +/− 485
tumor volume changes from baseline, Median +/− MAD (9.3 mg/kg, DAY 20): 766 +/− 713
tumor volume changes from baseline, Median +/− MAD (9.3 mg/kg, DAY 25): 1095
tumor volume changes from baseline, Median +/− MAD (9.3 mg/kg, DAY 28): 182.5 +/− 248
tumor volume changes from baseline, Median +/− MAD (9.3 mg/kg, DAY 32): 385 +/− 414
#CR (15 mg/kg i.v./q4d × 3): 9
#PR (15 mg/kg i.v./q4d × 3): 9
#TFS (15 mg/kg i.v./q4d × 3): 7
Drug Deaths Total (15 mg/kg i.v./q4d × 3): 0
Weight Nadir % (15 mg/kg i.v./q4d × 3): −3%
Weight Nadir Day (15 mg/kg i.v./q4d × 3): 7
Tumor Volume Data (Day 11) Median (15 mg/kg i.v./q4d × 3): 0 mm^3
ΔT/ΔC % (15 mg/kg i.v./q4d × 3): −16%
MTTE (15 mg/kg i.v./q4d × 3): >61 days
T-C (15 mg/kg i.v./q4d × 3): >44.1 days
CR (15 mg/kg q4d×3 IV): 9/9
TFS (15 mg/kg q4d×3 IV): 7/9
tumor volume changes from baseline, Median +/− MAD (15 mg/kg, DAY 4): 0 +/− 0 (n = 9)
tumor volume changes from baseline, Median +/− MAD (15 mg/kg, DAY 7): −113 +/− 32
tumor volume changes from baseline, Median +/− MAD (15 mg/kg, DAY 11): −131 +/− 47
tumor volume changes from baseline, Median +/− MAD (15 mg/kg, DAY 14): −131 +/− 47
tumor volume changes from baseline, Median +/− MAD (15 mg/kg, DAY 17): −131 +/− 47
tumor volume changes from baseline, Median +/− MAD (15 mg/kg, DAY 20): −131 +/− 47
tumor volume changes from baseline, Median +/− MAD (15 mg/kg, DAY 25): −131 +/− 47
tumor volume changes from baseline, Median +/− MAD (15 mg/kg, DAY 28): −131 +/− 47
tumor volume changes from baseline, Median +/− MAD (15 mg/kg, DAY 32): −131 +/− 40
#CR (24.2 mg/kg i.v./q4d × 3): 9
#PR (24.2 mg/kg i.v./q4d × 3): 9
#TFS (24.2 mg/kg i.v./q4d × 3): 8
Drug Deaths Total (24.2 mg/kg i.v./q4d × 3): 0
Weight Nadir % (24.2 mg/kg i.v./q4d × 3): −5%
Weight Nadir Day (24.2 mg/kg i.v./q4d × 3): 11
Tumor Volume Data (Day 11) Median (24.2 mg/kg i.v./q4d × 3): 0 mm^3
ΔT/ΔC % (24.2 mg/kg i.v./q4d × 3): −18.3%
MTTE (24.2 mg/kg i.v./q4d × 3): >61 days
T-C (24.2 mg/kg i.v./q4d × 3): >44.1 days
CR (24.2 mg/kg q4d×3 IV): 9/9
TFS (24.2 mg/kg q4d×3 IV): 8/9
tumor volume changes from baseline, Median +/− MAD (24.2 mg/kg, DAY 4): −19 +/− 19
tumor volume changes from baseline, Median +/− MAD (24.2 mg/kg, DAY 7): −150 +/− 52
tumor volume changes from baseline, Median +/− MAD (24.2 mg/kg, DAY 11): −150 +/− 38
tumor volume changes from baseline, Median +/− MAD (24.2 mg/kg, DAY 14): −150 +/− 38
tumor volume changes from baseline, Median +/− MAD (24.2 mg/kg, DAY 17): −150 +/− 38
tumor volume changes from baseline, Median +/− MAD (24.2 mg/kg, DAY 20): −150 +/− 38
tumor volume changes from baseline, Median +/− MAD (24.2 mg/kg, DAY 25): −150 +/− 38
tumor volume changes from baseline, Median +/− MAD (24.2 mg/kg, DAY 28): −150 +/− 38
tumor volume changes from baseline, Median +/− MAD (24.2 mg/kg, DAY 32): −150 +/− 38
antitumor activity compared with docetaxel (conclusion of example 6, 15 or 24.2 mg/kg, same or equi-toxic dose): significantly more active than docetaxel
